From PMC10458307, “New Scaffolds of Proteasome Inhibitors: Boosting Anticancer Potential by Exploiting the Synergy of In Silico and In Vitro Methodologies” (Pharmaceuticals, 2023)
pIC50: −log10 of the molar value. “And” between values parts separate entries of the source, which are not always exact repeats. Equal values may be shown once.

Experiments:
[1] = biological target: T1, isolated human 20S proteasome, C-L activity (Homo sapiens, UniProt P28072); assay: Proteasome inhibition assay in isolated human 20S proteasomes (Proteasome-Glo), C-L activity; format: biochemical; conditions: mean ± SD
T1 construct: human purified erythrocyte-derived 20S proteasome; purchased Enzo Life Sciences, Inc; host or cells: human erythrocytes (natural source)
Text: In this assay, the peptide substrates are bound to aminoluciferin (Suc-LLVY-AML for CT-L activity, Z-nLPnLD-AML for C-L, and Z-LRR-AML for T-L), leading the cleavage of these substrates by the proteasome to the release of free aminoluciferin, which is the substrate of the buffer-contained luciferase.
To evaluate human purified erythrocyte-derived 20S proteasome inhibitory activity of the chosen compounds, the Proteasome-Glo™ 3-substrate system (Promega Corporation, Madison, WI, USA) was employed. The Proteasome-Glo™ reagents of the three proteolytic activities were prepared according to the manufacturer’s instructions, aliquoted, and stored at either −20 °C or 4 °C, avoiding freezing–thaw cycles. […] The purified 20S proteasome (Enzo Life Sciences, Inc., Farmingdale, NY, USA) was diluted in HEPES buffer 10 mM, pH 7.4, to a concentration experimentally adjusted to the signal/noise ratio obtained with each particular lot of Proteasome-Glo™ reagent, in order to have a good compromise between sensitivity and linear response. […] All assays were performed in white-walled multiwell plates (Thermo Scientific™ Sterilin™ White Microtiter™ plates, Thermo Fisher Scientific, Paisley, UK) in duplicates. The proteasome solution (25 μL) was added to each well first, then the diluted solutions of the assayed compounds (25 μL), and lastly the Proteasome-Glo™ Reagent (50 μL). […] Reagents were added to the plate well on ice, and the plate was then transferred to the plate luminometer (SpectraMax®, Molecular Devices, LLC, San Jose, CA, USA) set at 37 °C, gently mixed for 30 s, and the measurements were immediately started in kinetic mode, with data collected every 5 min for at least 60 min.
All compounds were dissolved in DMSO at a concentration of 10 mM and stored at −20 °C or 4 °C. Solutions of the test compounds were prepared at their adequate dilutions in 10 mM HEPES buffer pH 7.6 before each experiment.
To calculate the proteasome activity over time, the value of mean relative luminescence units (RLU) of blank wells at each respective time point was subtracted, and then the ratio between mean RLU of the sample and mean RLU of the positive control wells was calculated for each time point and expressed as percentage.

HT-29 cells = assay: Cell viability, MTT assay, HT-29; format: cell-based, human; conditions: 72 h; for pIC50: Homo sapiens, HT-29, mean ± SD; for percentage of cell viability, MTT, HT-29: at 100 µM
Method: (§1) Whenever possible, additional concentrations were tested and IC50 values were determined.
(§2) Human leukemia Jurkat E6.1 T-cell line and K562-cell line were originally obtained from ATCC Collections (Manassas, VA, USA); human HT-29 and HCT116 colorectal carcinoma-cell lines were obtained from ECACC (Porton Down, Porton, UK). Cells were passaged for less than 6 months after and routinely tested for mycoplasma contamination using Mycoalert detection kit (Lonza, Basel, Switzerland). Jurkat, K562, and HT-29 cells were maintained in Roswell Park Memorial Institute (RPMI) 1640 with GlutaMAX™, supplemented with 1% antibiotic mixture (100 µg/mL streptomycin and 100 U/mL penicillin) and 10% heat-inactivated foetal bovine serum (FBS) (all from Gibco, Thermo Fisher Scientific, Paisley, UK). HCT116 cells were maintained in Dulbecco’s Modified Eagle Medium (DMEM) with GlutaMAX™, supplemented with 1% antibiotic mixture (100 µg/mL streptomycin and 100 U/mL penicillin) and 10% heat-inactivated FBS (all from Gibco, Thermo Fisher Scientific, Paisley, UK). Incubation was performed at 37 °C in a 5% CO2 atmosphere. Cells were routinely passaged every 2 or 3 days at 70–90% confluence; TrypLE Express (Gibco, Thermo Fisher Scientific, Paisley, UK) was used as dissociation agent for adherent cells. Trypan blue (Gibco, Thermo Fisher Scientific, Paisley, UK) was used to assess cell viability using the dye exclusion test.
(§3) To assess cell viability, the MTT assay was performed. Jurkat/K562/HT-29/HCT116 cell lines were seeded in triplicate (10,000 cells/well) in 96-well plates with 50 µL of complete medium and incubated at 37 °C, 5% CO2 for 24 h to allow the cells to adhere to the plate (in the case of adherent cells). […] Untreated cells seeded in triplicate were used as control. The blank was performed in triplicate with 100 µL of culture medium. The cells were incubated with the compounds, in triplicate, in 100 µL of total volume, at 37 °C, 5% CO2 for 72 h. […] In suspension cells (Jurkat), 25 µL of MTT were directly added to each well and, after 3 h 30 m of incubation, 100 µL of DMSO were added to solubilize the formazan crystals; in adherent cells (HT-29 and HCT116), the culture medium was removed, 25 µL of MTT were added to each well and, after 3 h 30 m of incubation, upon MTT removal, 100 µL of DMSO were added to solubilize the formazan crystals. After 15 min, the samples absorbance was measured at 570 nm and the percentage of cell viability was determined.

[2] = biological target: T2, 20S proteasome in K562 cell lysates, CT-L activity (Homo sapiens, UniProt P28074); assay: Proteasome inhibition assay in cell lysates, K562, CT-L; conditions: for inhibition at 10 µM: read-out: percentage of proteasome inhibition, CT-L, cell lysates K562, at 10 µM; for inhibition at 100 µM: read-out: percentage of proteasome inhibition, CT-L, cell lysates K562, at 100 µM
T2 sequence (P28074 60-263): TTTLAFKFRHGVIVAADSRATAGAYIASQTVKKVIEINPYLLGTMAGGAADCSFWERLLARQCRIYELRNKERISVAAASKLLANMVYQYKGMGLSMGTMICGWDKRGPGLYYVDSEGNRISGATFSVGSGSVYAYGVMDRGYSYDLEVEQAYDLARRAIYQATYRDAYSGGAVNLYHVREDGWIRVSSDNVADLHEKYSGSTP
T2 sequence (P20618 29-241 partner): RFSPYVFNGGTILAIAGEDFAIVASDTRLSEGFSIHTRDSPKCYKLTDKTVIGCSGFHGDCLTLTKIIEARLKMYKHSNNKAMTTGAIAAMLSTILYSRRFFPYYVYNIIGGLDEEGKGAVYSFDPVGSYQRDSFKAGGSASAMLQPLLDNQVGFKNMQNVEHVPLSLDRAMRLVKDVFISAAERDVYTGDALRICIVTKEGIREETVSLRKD
Method: Cells were obtained from several cultured cell lines: Jurkat, K562, HT-29, and HCT116. Pellets with 20 × 10^6 cells were prepared and washed with cold sterile phosphate buffered saline (PBS), 1×, pH 7.4 (Gibco, Thermo Fisher Scientific, Paisley, UK). The preparation of the lysates from several cell lines was performed based on the methodology described by Gavioli et al. [67]. Cells were resuspended in buffer containing 50 mM TRIS-HCl pH 7.4 (Nzytech, Lisboa, Portugal), 5 mM MgCl2 (≥98% purity, Merck, Hamburg, Germany), 1 mM DTT (Merck, Hamburg, Germany), 2 mM ATP (≥98% purity, Enzo Life Sciences Inc., Farmingdale, NY, USA), and 250 mM saccharose (Merck, Hamburg, Germany). Glass beads (Merck, Hamburg, Germany) equivalent to the volume of the cell suspension were added, and the mixture was vortexed for 2 min at 4 °C. Beads and cell debris were removed using 5 min centrifugation at 1000× g and 4 °C, followed by 20 min of centrifugation at 10,000× g at 4 °C. Cell lysates containing proteasomes were resuspended in “activity buffer” [50 mM TRIS-HCl (pH 7.4), 5 mM MgCl2, 1 mM DTT, 2 mM ATP (≥98% purity, Enzo Life Sciences Inc., Farmingdale, NY, USA), and 500 µM EDTA (≥98% purity, Merck, Hamburg, Germany)]. Protein concentration was determined using the Pierce™ BCA protocol (Thermo Fisher Scientific, Rockford, IL, USA). […] DMSO was added in an equal volume as used for the untreated compounds as a way to assess/control its influence in the assay. Untreated cells were used as control. In each well of a 96-well plate, 25 µL of lysate were seeded in duplicate with 25 µL of the compound to test; in the control, 25 µL of activity buffer were added to the 25 µL of lysate. A blank (50 µL of activity buffer) was added to the wells in quadruplicate. Cell lysates, pre-treated or not with different concentrations of the test compounds, were incubated for 30 min at 37 °C. […] Stock solutions (10 mM) of each substrate were prepared in DMSO, diluted in activity buffer, and 50 µL were added to all wells (final concentration of each substrate = 100 µM), followed by an incubation at 37 °C for 60 min. Samples fluorescence was measured at an excitation wavelength of 360 nm and emission of 465 nm; the fluorescence measures were performed using the GloMax-Multi + Detection System (Promega Corp., Madison, WI, USA). Activity was evaluated in fluorescence units, after being converted to percentage of proteasome inhibition and, whenever possible, expressed as IC50 by plotting the inhibition data of each compound at different concentrations against the log of the concentration of the inhibitor, using the GraphPad Prism software version 7. At least eight different concentrations of the test compounds were used.

[3] = Cell viability, MTT assay, K562; format: cell-based, human; conditions: human, K562 leukemia cells, read-out: percentage of cell viability, MTT, K562; for viability at 72 h, 10 µM: at 10 µM; for viability at 72 h, 100 µM: at 100 µM
Method: as §1, §2, §3

[4] = at 100 µM, Table 2 legend: bortezomib 10 µM
[5] = Table 2 legend: bortezomib 10 µM

Structure (SMILES) | pIC50 [1] | pIC50 (HT-29 cells) | percentage of cell viability, MTT, HT-29 (HT-29 cells) | percentage of proteasome inhibition, CT-L, cell lysates K562 ([2]; at 10 µM) | percentage of proteasome inhibition, CT-L, cell lysates K562 [2, 4] | viability at 72 h, 10 µM [3] | viability at 72 h, 100 µM [3] | inhibition at 10 µM [2] | inhibition at 100 µM [2, 5]
C#CCCN1CCN(c2ccc(-n3c(=O)ccc4cnc5ccc(-c6ccc(N)nc6)cc5c43)cc2C(F)(F)F)CC1 [Compound 4, 9-(6-Aminopyridin-3-yl)-1-(4-(4-(but-3-yn-1-yl)piperazin-1-yl)-3-(trifluoromethyl)phenyl)benzo[h][1,6]naphthyridin-2(1H)-one] | 4.39 | 4.37 | 34% |  |  |  |  |  | 
CC(C)C[C@H](NC(=O)[C@H](Cc1ccccc1)NC(=O)c1cnccn1)B(O)O [Bortezomib, bortezomib, reference compound] |  | 8.01 |  | 95.17% | 99.60% and 100% | 0% | 0% |  | 
Cc1ccc(/C(=N/NS(=O)(=O)c2ccc([N+](=O)[O-])cc2)Sc2cc(Cl)c(C)cc2S(N)(=O)=O)cc1 [Compound 3] | 4.29 |  |  |  | 59% | 100% | 100% | 9.34% | 59.1%
O=C1c2ccccc2C(=O)c2c(Nc3ccc(S(=O)(=O)N(CCO)CCO)cc3)ccc(O)c21 [Compound 2] | 5.62 |  | 65% |  | 40% | 86.3% |  | 13.2% | 40.1%
CC(C)c1nc(CN(C)C(=O)N[C@@H](CCN2CCOCC2)C(=O)N[C@H](CC[C@H](Cc2ccccc2)NC(=O)OCc2cncs2)Cc2ccccc2)cs1 [Compound 5, cobicistat, reference compound] |  | 4.15 | 25% |  |  |  |  |  | 
Cc1ccc2ccccc2c1CSc1ncnc2c1ncn2C1OC(CO)C(O)C1O (centres unmarked) [Compound 1] |  | 4.21 | 23% |  | 63% | 93.1% | 18.2% | 0% | 62.7%
